Test results reported in the supplement of paper PMC10307832.

How the values were obtained:
Experiment in all cases: relative viability (nuclei count vs DMSO), 5 days (fraction); higher = more cells survive
Bosutinib = compound: COc1cc(Nc2c(C#N)cnc3cc(OCCCN4CCN(C)CC4)c(OC)cc23)c(Cl)cc1Cl [Bosutinib]
In short: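 Vehicle-anchored 1536-well plates of lung cancer cell lines, held overnight at 37 °C, were pinned with five library-drug doses (not always all listed) spaced by √10. No medium change followed over the next 5 days, after which the cells were fixed, permeabilised and Hoechst-stained together and imaged at 4×. Nuclei were counted with MetaXpress, and viability is treated-well nuclei over vehicle-well nuclei, taken as a median across plates. Plates passed with control CV below 25% and at least one doubling.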

Bosutinib + Trametinib = compound: COc1cc(Nc2c(C#N)cnc3cc(OCCCN4CCN(C)CC4)c(OC)cc23)c(Cl)cc1Cl [Bosutinib] + CC(=O)Nc1cccc(-n2c(=O)n(C3CC3)c(=O)c3c(Nc4ccc(I)cc4F)n(C)c(=O)c(C)c32)c1 [Trametinib] (partner 0.02 µM)
In short: (§1)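 After 5 days of treatment, lung cancer cells in 1536-well plates were fixed and stained in a single step (final 0.05% Triton X-100, 1% formaldehyde, 1 ug/ml Hoechst) and their nuclei counted on 4× images. Treatment had been applied by pin tool the day after seeding as one drug alone or as a fixed anchor-drug dose with five library-drug doses (not always all listed) in √10 steps. Relative viability is the nuclei count of treated wells divided by that of vehicle wells, and values are medians of duplicate plates.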

Bosutinib + Lapatinib = compound: COc1cc(Nc2c(C#N)cnc3cc(OCCCN4CCN(C)CC4)c(OC)cc23)c(Cl)cc1Cl [Bosutinib] + CS(=O)(=O)CCNCc1ccc(-c2ccc3ncnc(Nc4ccc(OCc5cccc(F)c5)c(Cl)c4)c3c2)o1 [Lapatinib] (partner 2 µM)
In short: as §1

Bosutinib + AZD7762 = compound: COc1cc(Nc2c(C#N)cnc3cc(OCCCN4CCN(C)CC4)c(OC)cc23)c(Cl)cc1Cl [Bosutinib] + NC(=O)Nc1cc(-c2cccc(F)c2)sc1C(=O)N[C@H]1CCCNC1 [AZD7762] (partner 0.2 µM)
In short: as §1

Bosutinib + Vorinostat = compound: COc1cc(Nc2c(C#N)cnc3cc(OCCCN4CCN(C)CC4)c(OC)cc23)c(Cl)cc1Cl [Bosutinib] + O=C(CCCCCCC(=O)Nc1ccccc1)NO [Vorinostat] (partner 1 µM)
In short: as §1

Row | Cell Line | relative viability (Bosutinib; 0.01 µM) | relative viability (Bosutinib; 0.03162 µM) | relative viability (Bosutinib; 0.1 µM) | relative viability (Bosutinib; 1 µM) | relative viability (Bosutinib + Trametinib; first compound 0.01 µM) | relative viability (Bosutinib + Trametinib; first compound 0.03162 µM) | relative viability (Bosutinib + Trametinib; first compound 0.1 µM) | relative viability (Bosutinib + Trametinib; first compound 1 µM) | relative viability (Bosutinib + Lapatinib; first compound 0.01 µM) | relative viability (Bosutinib + Lapatinib; first compound 0.03162 µM) | relative viability (Bosutinib + Lapatinib; first compound 0.1 µM) | relative viability (Bosutinib + Lapatinib; first compound 1 µM) | relative viability (Bosutinib + AZD7762; first compound 0.01 µM) | relative viability (Bosutinib + AZD7762; first compound 0.03162 µM) | relative viability (Bosutinib + AZD7762; first compound 0.1 µM) | relative viability (Bosutinib + AZD7762; first compound 1 µM) | relative viability (Bosutinib + Vorinostat; first compound 0.01 µM) | relative viability (Bosutinib + Vorinostat; first compound 0.03162 µM) | relative viability (Bosutinib + Vorinostat; first compound 0.1 µM) | relative viability (Bosutinib + Vorinostat; first compound 1 µM)
1 | NCI-H23 | 1.13 | 0.997 | 1.04 | 0.872 | 0.343 | 0.344 | 0.36 | 0.277 | 1.09 | 1.06 | 1.2 | 1.11 | 0.356 | 0.205 | 0.202 | 0.164 | 0.779 | 0.622 | 0.651 | 0.619
2 | NCI-H1395 | 0.932 | 0.914 | 1.01 | 0.817 | 0.992 | 0.993 | 1.02 | 0.928 | 1.26 | 1.06 | 0.914 | 1.08 | 0.405 | 0.425 | 0.387 | 0.38 | 0.802 | 0.827 | 0.862 | 0.787
3 | NCI-H1666 | 0.988 | 1.04 | 0.924 | 1.02 | 0.888 | 0.774 | 0.832 | 0.842 | 0.705 | 0.592 | 0.656 | 0.757 | 0.719 | 0.836 | 0.832 | 0.788 | 0.99 | 0.99 | 1.12 | 1.22
4 | NCI-H2405 | 1.05 | 1.1 | 1.03 | 0.801 | 0.659 | 0.653 | 0.605 | 0.396 | 1.23 | 1.2 | 0.983 | 0.895 | 0.873 | 0.739 | 0.701 | 0.598 | 1.04 | 1.33 | 1.39 | 0.766
5 | HCC-78 | 0.906 | 1.2 | 1.08 | 0.902 | 0.84 | 0.712 | 0.768 | 0.725 | 0.468 | 0.798 | 0.817 | 0.7 | 0.655 | 0.788 | 0.781 | 0.584 | 0.469 | 0.362 | 0.444 | 0.356
6 | NCI-H2170 | 1.01 | 0.974 | 1.01 | 0.926 | 0.93 | 0.896 | 0.948 | 0.946 | 0.268 | 0.268 | 0.282 | 0.282 | 0.922 | 0.924 | 0.819 | 0.801 | 0.882 | 0.832 | 0.891 | 0.774
7 | NCI-H1793 | 0.916 | 0.84 | 0.791 | 0.588 | 0.383 | 0.394 | 0.454 | 0.298 | 0.864 | 0.839 | 0.438 | 0.497 | 0.497 | 0.39 | 0.366 | 0.175 | 0.718 | 0.75 | 0.877 | 0.504
8 | HCC-366 | 0.991 | 1 | 0.974 | 0.785 | 0.319 | 0.226 | 0.326 | 0.215 | 1.16 | 0.942 | 0.939 | 0.884 | 0.34 | 0.253 | 0.205 | 0.073 | 0.433 | 0.378 | 0.375 | 0.286
9 | NCI-H1651 | 0.997 | 0.966 | 1.03 | 0.988 | 0.805 | 0.801 | 0.829 | 0.757 | 0.923 | 0.877 | 0.767 | 0.823 | 0.473 | 0.515 | 0.443 | 0.441 | 0.548 | 0.636 | 0.646 | 0.569
10 | LC-2-ad | 0.961 | 1.08 | 1.06 | 1 | 0.953 | 0.898 | 0.892 | 0.859 | 0.99 | 0.92 | 1.05 | 1.01 | 0.88 | 0.818 | 0.846 | 0.755 | 0.735 | 0.659 | 0.673 | 0.71
11 | HCC-827 | 1.07 | 1.05 | 1.09 | 0.649 | 0.55 | 0.6 | 0.594 | 0.18 | 0.167 | 0.25 | 0.19 | 0.169 | 0.219 | 0.21 | 0.189 | 0.168 | 0.811 | 0.903 | 1.04 | 0.75
12 | LOU-NH91 | 0.941 | 0.999 | 0.971 | 0.779 | 0.816 | 0.805 | 0.771 | 0.672 | 0.759 | 0.824 | 0.791 | 0.723 | 0.78 | 0.757 | 0.704 | 0.679 | 0.903 | 0.922 | 0.92 | 0.819
13 | LU99A | 0.958 | 1.02 | 1.04 | 0.606 | 0.53 | 0.623 | 0.645 | 0.517 | 1.05 | 1.01 | 0.976 | 0.876 | 0.376 | 0.362 | 0.354 | 0.287 | 0.51 | 0.495 | 0.573 | 0.483
14 | HOP-62 | 0.977 | 1.01 | 0.959 | 1.05 | 0.377 | 0.425 | 0.401 | 0.354 | 0.977 | 1.12 | 1.08 | 1.01 | 0.497 | 0.619 | 0.721 | 0.4 | 0.641 | 0.687 | 0.682 | 0.652
15 | NCI-H1734 | 1.06 | 1.01 | 0.965 | 0.892 | 0.693 | 0.711 | 0.726 | 0.591 | 1.17 | 1.07 | 0.977 | 1.06 | 0.632 | 0.512 | 0.512 | 0.369 | 0.836 | 0.86 | 0.855 | 0.654
